Results on five compounds are retold here after US7867990B2, “Steroid hormone products and methods for preparing them” (Ortho-McNeil Pharmaceutical, Inc., priority 2001, dated 2011).

A short description of data set [1]: Dissolution of norgestimate from tablets manufactured by wet processing, initial and after accelerated storage. Type of data set: physicochemical. The settings on record: for Percent Norgestimate Dissolved in 30 Minutes, 1 month 40° C./75% RH: wet-processed tablets stored unprotected; for Percent Norgestimate Dissolved in 30 Minutes, Initial: wet-processed tablets. The text has this:
The data in Table 4 further support the existence of a high energy form of norgestimate in the presence of lactose. […] Like the data reported in Table 2, dissolution properties are dependent on storage conditions. However it is apparent that the extent of such changes is further dependent on the mixing energetics imparted during the process.

A short description of data set [2]: Dissolution of norgestimate co-milled with lactose 1:9 in 100 ml 0.05% Tween 20 as a function of storage time. It is filed as physicochemical. The note with it: for Norgestimate Concentration Time = 0 Days: storage 0 days; for Norgestimate Concentration Time = 44 Days: stored 44 days at 40° C./75% RH.
Data set [3] is described as follows: Dissolution of norgestimate from tablets manufactured by dry processing, pilot and production scale. It is filed as physicochemical. The note with it: dry-processed tablets. How it is done: Differences in the dissolution behavior of norgestimate from tablets manufactured by dry processing on both a pilot scale and a production scale were also evaluated. The minimum mechanical energy of 0.1 hp-min/kg can be imparted in a dry process using a geometric tumbler blender equipped for additional mixing energy with blades or choppers. A progestin such as norgestimate can be combined with lactose and additives. Increasing the length of processing time with the blades or choppers in use would impart sufficient energy to produce the forms identified in this invention. […] The important of dissolution rate as a function of mixing time is also noted.

Data set [4] can be described thus: PXRD pattern of norgestimate:lactose mixtures after milling. It is filed as physicochemical. The settings on record: milled 20 minutes, mill type not specified at the place. How it is done: Research efforts were thus made to generate the non-crystalline form of norgestimate in the presence and absence of lactose via physical and mechanical processes. Various mixtures of norgestimate and lactose were prepared. To permit qualitative or semi-quantitative analysis, the ingredients were thoroughly mixed in ratios of 1:1 and 1:9 by either dissolving them in a co-solvent mixture or by co-grinding. Qualitative assessment of the degree of crystallinity was performed employing Powder X-Ray Diffractometry (PXRD).
Mixtures of norgestimate and lactose, in amorphous and crystalline forms, were milled for 20 minutes. The amorphous state of each ingredient and of the mixture was confirmed by powder x-ray pattern diffraction (PXRD).

Data set [5] in a line: Physical stability (recrystallization) of amorphous materials in humidity chambers, followed by PXRD. The note with it: for Stability of Amorphous Norgestimate (onset of norgestimate recrystallization), 0% RH: 0% RH humidity chamber; for Stability of Amorphous Norgestimate (onset of norgestimate recrystallization), 0% RH / Stability of Amorphous Norgestimate (onset of norgestimate recrystallization), 31% RH / Stability of Amorphous Norgestimate (onset of norgestimate recrystallization), 76% RH: PXRD; for Stability of Amorphous Norgestimate (onset of norgestimate recrystallization), 31% RH: 31% RH humidity chamber; for Stability of Amorphous Norgestimate (onset of norgestimate recrystallization), 76% RH: 76% RH humidity chamber.

The nature of data set [6]: DSC thermal analysis: glass-transition temperature (Tg) and crystallization exotherm (Tc). It is filed as physicochemical. The method, then: The lactose/norgestimate mixtures made as in Example 2 were subjected to thermal analysis, according to conventional Differential Scanning Calorimetry (DSC). […] Glass-transition temperature measurements generally entail trial runs on a DSC to obtain an optimal method for observing glass-transition events. […] Some amorphous norgestimate samples produce a weak Tg event at 122-123° C., while other samples shown an exothermic event, probably because of norgestimate crystallization. All of the norgestimate samples show a similar endothermic event at 226-228° C. The thermal gravimetric analysis (TGA) of samples show rapid weight loss at that temperature, therefore, the endotherm over 220° C. primarily corresponds to decomposition. The Merck Index lists the melting temperature of the crystalline norgestimate at 214-218° C. […] This thermal event (Tc) was used to measure the stability of different simulated drug products. The temperature of Tc- should be higher if norgestimate is stabilized by lactose.
On the technique in general: Differential scanning calorimetry records heat flow against a reference as temperature is scanned.

Data set [7] can be described thus: Dissolution of crystalline and non-crystalline norgestimate (USP Apparatus 2, 75 rpm, 600 ml of 0.05% Tween 20). Type of data set: physicochemical. The settings on record: 600 ml 0.05% Tween 20. How it is done:
Employing the current dissolution standard (USP Apparatus 2, 75 rpm, 600 ml of 0.05% Tween 20), the dissolution rates and extent of dissolution for individual samples of both crystalline and non-crystalline norgestimate were compared. […]

As for `C#C[C@]1(OC(C)=O)CC[C@H]2[C@@H]3CCC4=CC(=NO)CC[C@@H]4[C@H]3CC[C@@]21CC` (mixture of isomers) [Norgestimate, norgestimate], the “Percent Norgestimate Dissolved in 30 Minutes, 1 month 40° C./75% RH” value is on record as 36% in data set [1] (blend time 0 minutes); 45% in data set [1] (blend time 2* minutes); 45% in data set [1] (blend time 20 minutes); 46% in data set [1] (blend time 40 minutes); 85% in data set [1] (blend time 60 minutes). The “Percent Norgestimate Dissolved in 30 Minutes, Initial” value was 75.4% in data set [1] (blend time 0 minutes); 91% in data set [1] (blend time 2* minutes); 90.1% in data set [1] (blend time 20 minutes); 92.6% in data set [1] (blend time 40 minutes); 94.5% in data set [1] (blend time 60 minutes). For the same compound, the “Norgestimate Concentration Time = 0 Days” value in data set [2] (dissolution time 10 min) was 5.3 µg/mL; in data set [2] (dissolution time 20 min), 5.1 µg/mL; in data set [2] (dissolution time 30 min) it was 6.2 µg/mL; in data set [2] (dissolution time 60 min), 8.7 µg/mL; in data set [2] (dissolution time 240 min), 10 µg/mL; in data set [2] (dissolution time 720 min) it was 10.3 µg/mL. Besides, the “Norgestimate Concentration Time = 44 Days” value was 2.4 µg/mL in data set [2] (dissolution time 10 min); 5.2 µg/mL in data set [2] (dissolution time 20 min); 6.5 µg/mL in data set [2] (dissolution time 30 min); 5.9 µg/mL in data set [2] (dissolution time 60 min); 6.7 µg/mL in data set [2] (dissolution time 240 min); 7.3 µg/mL in data set [2] (dissolution time 720 min). In addition, the “Percent Norgestimate Dissolved in 20 Minutes” value is 78.4% in data set [3] (pilot scale, mixing time 5 minutes); 85% in data set [3] (pilot scale, mixing time 10 minutes); 88.5% in data set [3] (pilot scale, mixing time 20 minutes); 97.4% in data set [3] (pilot scale, mixing time 30 minutes); 93.6% in data set [3] (pilot scale, mixing time 33 minutes); 74.9% in data set [3] (pilot scale, mixing time […]). Besides, the “Percent Norgestimate Dissolved in 20 Minutes” value in data set [3] (production scale, mixing time 4.8 minutes) is recorded as 64.7%; in data set [3] (production scale, mixing time 12 minutes) it was 81.2%; in data set [3] (production scale, mixing time 15 minutes), 90.3%; in data set [3] (production scale, mixing time 30 minutes), 92.8%; in data set [3] (production scale, mixing time 45 minutes), 96.2%; in data set [3] (production scale, mixing time 60 minutes) it was 97.4%. Further, the “Percent Norgestimate Dissolved in 20 Minutes” value in data set [3] (production scale, mixing time 75 minutes) was 97.2%. In data set [4], the “Solid-state form of norgestimate after milling with lactose (PXRD)” value is “non-crystalline”. In addition, the “Stability of Amorphous Norgestimate (onset of norgestimate recrystallization), 0% RH” value in data set [5] is less than 3 days. Further, the “Stability of Amorphous Norgestimate (onset of norgestimate recrystallization), 31% RH” value in data set [5] is less than 1 day days. In addition, the “Stability of Amorphous Norgestimate (onset of norgestimate recrystallization), 76% RH” value in data set [5] was less than 1 day days. Moreover, the “Time to recrystallization of norgestimate” value in data set [5] (in the absence of lactose, room temperature, 0% RH chamber) is given as not above 3 days. Further, in data set [5] (norgestimate co-milled with lactose 1:9, approximately 40° C. at 75% RH), the “Time norgestimate remained partially crystalline” value is listed as “at least 44 days”.
`C#C[C@]1(OC(C)=O)CC[C@H]2[C@@H]3CCC4=CC(=NO)CC[C@@H]4[C@H]3CC[C@@]21CC` (mixture of isomers) [Amorphous Norgestimate, norgestimate]: in data set [6], the “Tc (crystallization of norgestimate)” value is 105 °C and the “Tg (glass-transition temperature)” value is 122-123 °C. In data set [7] (dissolution time 5 min), the Norgestimate concentration dissolved is 0.44 µg/mL. Also, the Norgestimate concentration dissolved in data set [7] (dissolution time 60 min) was 1.38 µg/mL. Further, in data set [7] (dissolution time 120 min), the Norgestimate concentration dissolved was 1.88 µg/mL. For the same compound, in data set [5], the “Stability of Amorphous Norgestimate (onset of norgestimate recrystallization), 0% RH” value was less than 3 days; the “Stability of Amorphous Norgestimate (onset of norgestimate recrystallization), 31% RH” value is “less than 1 days”; the “Stability of Amorphous Norgestimate (onset of norgestimate recrystallization), 76% RH” value is “less than 1 days”. For the same compound, the “Time to complete recrystallization of amorphous norgestimate” value in data set [5] (room temperature, 0%, 31% and 76% RH (all conditions tested)) is listed as not above 3 days.
For the compound `OC[C@H]1O[C@@H](O[C@H]2[C@H](O)[C@@H](O)C(O)O[C@@H]2CO)[C@H](O)[C@@H](O)[C@H]1O` (stereo partly shown) [lactose], in data set [4], the “Solid-state form of lactose after milling with norgestimate (PXRD)” value is recorded as “partially crystalline”.
As for `C#C[C@]1(OC(C)=O)CC[C@H]2[C@@H]3CCC4=CC(=NO)CC[C@@H]4[C@H]3CC[C@@]21CC` [Crystalline Norgestimate, norgestimate], the values for the Norgestimate concentration dissolved in data set [7] (dissolution time 5 min), in data set [7] (dissolution time 60 min) and in data set [7] (dissolution time 140 min) were 0.43 µg/mL, 0.81 µg/mL and 1.36 µg/mL, respectively.
As to `OC[C@H]1O[C@@H](O[C@H]2[C@H](O)[C@@H](O)C(O)O[C@@H]2CO)[C@H](O)[C@@H](O)[C@H]1O` (stereo partly shown) [Amorphous lactose, lactose], in data set [6], the “Tg (glass-transition temperature)” value was 114-115 °C.
